The source of these data is patent US20230295130A1, “COMPOUND USEFUL AS CDK7 KINASE INHIBITOR AND USE THEREOF” (TYK MEDICINES, INC., priority 2020, published 2023).

Usually IC50 stands for the concentration at which inhibition is half-maximal.

Test [1] deals with colorectal cancer cells WiDr. In words: Cell anti-proliferation experiment, MTT (Table 2). Type of test: cell-based, human. As to conditions: incubate 3 days. The text has this:
(§1) Human breast cancer cells MDA-MB 231, MDA-MB453, ovarian cancer cells OVCAR3 and A2780, colorectal cancer cells HCT-116 and WiDr, and lung cancer cell Calu-6 were purchased from BNCC. DMEM medium (Bio-Channel), DMSO (dimethyl sulfoxide), MTT (thiazole blue), 0.25% EDTA-Tripsin (pancreatin digestive juice), 1×PBS (phosphate buffer, PH7.2), 96-well plate (Corning), fetal bovine serum (FBS), 10,000 U/mL penicillin-G/streptomycin, high-speed freezing centrifuge (EPPENDORF 5810R), enzyme-linked immunosorbent assay (Tecan Spark).
(§2) 1. Cell Plating • A) Tumor cells were cultured to 80-90% density in DMEM (high sugar, containing 10% FBS and 100 U/mL penicillin-G/streptomycin) at 37° C., 5% CO2 and saturated humidity. • B) The culture medium was removed from the 10 cm culture dish. • C) Cells were washed with 10 ml 1×PBS. • D) 4 ml of 0.25% EDTA-Tripsin was added to an incubator to digest pancreatin for 5 minutes at 37° C. and 5% CO2, transferred to a 15 ml centrifuge tube, centrifuged for 5 minutes at 200 g, and supernatant was discarded to obtain cell precipitation. • E) The cell precipitation was resuspended with 4 ml DMEM medium, counted and adjusted to 50,000 cells/ml. • F) Cell suspension was added to a 96-well plate with a volume of 100 μL per well and cultured overnight in a 5% CO2 incubator at 37° C.
(§3) Compound Dilution • A) Preparing the tested compound gradient dilution solution: the tested compounds were prepared into 10 mM and 1 mM storage solution respectively. Firstly, 1 μl and 0.5 μl of 10 mM storage solution were dissolved in 1 ml of DMSO-free culture solution, respectively, to obtain diluted compounds with concentrations of 10 and 5 μM. Then, 1.5 μl of 1 mM storage solution was dissolved in 1.5 ml of DMSO-free culture solution to obtain a dilution compound with a concentration of 1 μM, and then diluted with a 3-fold continuous gradient with […] culture solution for a total of 7 concentrations. The concentrations of all 10 diluted compounds mentioned above were as follows: • 10 μM, 5 μM, 1 μM, 333.33 nM, 111.11 nM, 37.03 nM, 12.35 nM, 4.15 nM, 1.37 nM, 0.46 nM • B) After full mixing, 100 μL of culture compound solution was taken to replace the culture solution in the cell culture plate, with 4 duplicated wells at each concentration; • C) The cells were transferred to incubator to incubate for 3 days.
(§4) 3. MTT Detection • A) The cell culture plate was taken out and added with 5 mg/ml MTT 10 μL in the biosafety cabinet; • B) The cell culture plate was put back into the incubator and continued to incubate for 3 hours; • C) The cell culture plate was taken out to remove the culture solution, 100 μL isopropanol (containing 0.4 mM HCl, 0.1% NP-40) was added, shaking at room temperature for 30 minutes; • D) The absorbance value was measured at 570 nm on TECAN enzyme linked immunosorbent assay.

Test [2] relates to ovarian cancer cells A2780. The experiment in a line: Cell anti-proliferation experiment, MTT (Table 2). As to conditions: incubate 3 days. The class given is cell-based, human.
Excerpt: as §1, §2, §3, §4

Test [3] deals with ovarian cancer cells OVCAR3. The experiment in a line: Cell anti-proliferation experiment, MTT (Table 2). The class given is cell-based. The following applies: Homo sapiens, OVCAR-3, 72 h, incubate 3 days.
Excerpt: as §1, §2, §3, §4

In test [4] the test system is lung cancer cell Calu-6. The experiment in a line: Cell anti-proliferation experiment, MTT (Table 2). Type of test: cell-based. As to conditions: Homo sapiens, Calu-6, 72 h, incubate 3 days.
Excerpt: as §1, §2, §3, §4

Test [5] relates to colorectal cancer cells HCT-116. The experiment in a line: Cell anti-proliferation experiment, MTT (Table 2). Type of test: cell-based. The following applies: Homo sapiens, HCT-116, 72 h, incubate 3 days.
Excerpt: as §1, §2, §3, §4

Test [6] relates to breast cancer cells MDA-MB453. The experiment in a line: Cell anti-proliferation experiment, MTT (Table 2). Type of test: cell-based. As to conditions: Homo sapiens, MDA-MB-453, 72 h, incubate 3 days.
Excerpt: as §1, §2, §3, §4

In test [7] the test system is breast cancer cells MDA-MB 231. The experiment in a line: Cell anti-proliferation experiment, MTT (Table 2). The class given is cell-based. As to conditions: Homo sapiens, MDA-MB-231, 72 h, incubate 3 days.
Excerpt: as §1, §2, §3, §4

Test [8] has as its target T1, CDK7/Cyclin H/MAT1 kinase (Homo sapiens (Human), UniProt P50613). In words: Enzyme activity test, mobility shift assay (Table 3). Type of test: biochemical. As to conditions: 2 mM ATP, pre-incubated 0 and 60 minutes. How it is done:
IC50 values of the compounds for CDK7 kinase were detected in Wuxi Biortus Biosciences Co. Ltd.
The compound powder was dissolved in 100% DMSO to prepare a 10 mM storage solution. The storage solution was further diluted to 0.5 mM as the initial concentration, and continuously diluted 3 times to obtain 10 compound solutions with different concentrations. The compound and enzyme were pre-incubated for 0 minutes and 60 minutes, respectively, using duplicate detection.
was used as a positive control, using Mobility shift say method, to detect CDK kinase (such as CDK7, CDK9, CDK12 and CDK2) activity of the compound.

The target of test [9] is T1, CDK7/Cyclin H/MAT1 kinase. In words: Enzyme activity test, mobility shift assay (Table 1). Type of test: biochemical. The following applies: 2 mM ATP; pre-incubated 0 and 60 minutes.
Test [10] concerns the target CDK2/Cyclin El (Homo sapiens (Human), UniProt P24941). The description is as above. Type of test: biochemical. The following applies: 2 mM ATP; read-out: CDK2 kinase IC50. An outline of the steps:
(§5)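 Human CDK9/Cyclin T1 and CDK2/Cyclin E1 activity measured by mobility shift assay. Compounds tested as 10-point, 3-fold dilution series starting at 0.5 mM (diluted from 10 mM DMSO stock), in duplicate, with 0 min or 60 min compound–enzyme pre-incubation.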

Test [11] addresses CDK9/Cyclin Tl (Homo sapiens (Human), UniProt P50750). The description is as above. Type of test: biochemical. The following applies: 2 mM ATP; read-out: CDK9 kinase IC50. The procedure, abridged:
as §5

Test [12] concerns the target CDK12 (aa686-1082)/Cyclin K (Homo sapiens (Human), UniProt Q9NYV4). The description is as above. As to conditions: 2 mM ATP; read-out: CDK12 kinase IC50. Type of test: biochemical. The procedure, abridged: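 Mobility shift kinase assay on CDK9/Cyclin T1 and CDK12 (aa686-1082)/Cyclin K. Ten-point 3-fold dilution series started from a 0.5 mM intermediate solution in DMSO, with compound–enzyme pre-incubation of 0 or 60 min, in duplicate. Staurosporine served as positive control.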

Where only a bound is given, the exact number is not on record here.

T1 sequence (P50613 whole entry): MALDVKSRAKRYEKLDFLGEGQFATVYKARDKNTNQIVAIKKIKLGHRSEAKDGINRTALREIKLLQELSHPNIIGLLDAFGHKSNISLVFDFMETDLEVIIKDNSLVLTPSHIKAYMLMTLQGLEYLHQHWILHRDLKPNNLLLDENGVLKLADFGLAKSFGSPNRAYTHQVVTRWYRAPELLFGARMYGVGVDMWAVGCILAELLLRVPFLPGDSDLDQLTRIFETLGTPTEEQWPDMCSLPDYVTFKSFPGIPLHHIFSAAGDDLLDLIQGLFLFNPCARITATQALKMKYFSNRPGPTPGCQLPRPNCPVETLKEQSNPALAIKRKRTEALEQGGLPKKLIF
T1 sequence (P51946 whole entry partner): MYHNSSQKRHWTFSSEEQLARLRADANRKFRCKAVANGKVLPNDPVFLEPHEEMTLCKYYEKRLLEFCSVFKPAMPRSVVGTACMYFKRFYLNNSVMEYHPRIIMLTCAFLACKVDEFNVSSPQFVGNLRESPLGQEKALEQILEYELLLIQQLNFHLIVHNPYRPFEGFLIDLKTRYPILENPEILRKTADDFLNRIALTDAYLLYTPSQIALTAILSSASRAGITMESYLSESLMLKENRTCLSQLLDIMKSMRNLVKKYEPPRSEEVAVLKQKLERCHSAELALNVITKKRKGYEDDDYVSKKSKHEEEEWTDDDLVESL
T1 sequence (P51948 whole entry partner): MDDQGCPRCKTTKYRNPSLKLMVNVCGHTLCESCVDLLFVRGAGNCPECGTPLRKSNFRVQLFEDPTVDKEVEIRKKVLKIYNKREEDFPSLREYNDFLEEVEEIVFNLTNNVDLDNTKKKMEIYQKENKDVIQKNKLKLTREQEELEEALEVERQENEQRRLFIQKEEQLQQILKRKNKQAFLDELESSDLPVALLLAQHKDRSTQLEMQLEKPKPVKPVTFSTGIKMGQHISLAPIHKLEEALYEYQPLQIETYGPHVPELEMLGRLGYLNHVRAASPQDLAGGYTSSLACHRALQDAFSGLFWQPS
Chain of CDK9/Cyclin Tl (P50750 whole entry): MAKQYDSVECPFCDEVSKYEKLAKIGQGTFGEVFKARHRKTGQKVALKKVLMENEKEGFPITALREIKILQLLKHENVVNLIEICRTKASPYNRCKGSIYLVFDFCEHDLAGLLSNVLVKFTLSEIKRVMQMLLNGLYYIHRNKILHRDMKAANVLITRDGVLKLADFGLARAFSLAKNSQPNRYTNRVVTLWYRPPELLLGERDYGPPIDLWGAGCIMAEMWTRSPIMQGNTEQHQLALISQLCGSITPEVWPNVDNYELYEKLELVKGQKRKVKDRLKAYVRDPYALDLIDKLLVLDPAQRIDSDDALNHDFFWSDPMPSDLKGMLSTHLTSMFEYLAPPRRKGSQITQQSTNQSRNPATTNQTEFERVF
Chain of CDK9/Cyclin Tl (O60563 whole entry partner): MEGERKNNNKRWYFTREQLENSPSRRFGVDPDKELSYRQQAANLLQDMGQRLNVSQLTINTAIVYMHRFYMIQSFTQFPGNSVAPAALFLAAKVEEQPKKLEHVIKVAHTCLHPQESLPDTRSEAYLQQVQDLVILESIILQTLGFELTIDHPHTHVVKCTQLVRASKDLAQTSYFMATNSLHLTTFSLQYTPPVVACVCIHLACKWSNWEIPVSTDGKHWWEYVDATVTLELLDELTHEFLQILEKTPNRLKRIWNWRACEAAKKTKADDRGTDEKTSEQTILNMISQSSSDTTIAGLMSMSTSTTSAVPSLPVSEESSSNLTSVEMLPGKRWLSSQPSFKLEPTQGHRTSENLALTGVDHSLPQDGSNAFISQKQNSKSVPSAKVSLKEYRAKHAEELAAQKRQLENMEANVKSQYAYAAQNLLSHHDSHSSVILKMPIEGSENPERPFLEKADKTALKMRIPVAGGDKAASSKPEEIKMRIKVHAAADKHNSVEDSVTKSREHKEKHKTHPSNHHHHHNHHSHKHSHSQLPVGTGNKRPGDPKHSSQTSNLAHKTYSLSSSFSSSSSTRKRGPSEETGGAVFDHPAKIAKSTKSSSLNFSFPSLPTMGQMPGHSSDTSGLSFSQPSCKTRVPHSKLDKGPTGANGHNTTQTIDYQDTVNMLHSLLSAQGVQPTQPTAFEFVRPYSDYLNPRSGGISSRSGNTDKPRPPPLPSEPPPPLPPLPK
Chain of CDK12 (aa686-1082)/Cyclin K (Q9NYV4 686-1082): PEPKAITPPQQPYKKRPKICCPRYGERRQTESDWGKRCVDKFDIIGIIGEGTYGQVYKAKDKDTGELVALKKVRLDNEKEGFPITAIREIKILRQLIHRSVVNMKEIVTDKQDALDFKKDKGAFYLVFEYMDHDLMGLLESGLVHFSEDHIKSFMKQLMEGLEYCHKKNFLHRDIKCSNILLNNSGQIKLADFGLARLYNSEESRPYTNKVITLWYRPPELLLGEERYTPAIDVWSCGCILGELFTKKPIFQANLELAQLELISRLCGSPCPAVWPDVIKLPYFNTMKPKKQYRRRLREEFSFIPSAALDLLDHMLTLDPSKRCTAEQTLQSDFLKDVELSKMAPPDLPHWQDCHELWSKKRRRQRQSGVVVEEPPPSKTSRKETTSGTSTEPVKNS
Chain of CDK12 (aa686-1082)/Cyclin K (O75909 whole entry partner, the tested form may be a part): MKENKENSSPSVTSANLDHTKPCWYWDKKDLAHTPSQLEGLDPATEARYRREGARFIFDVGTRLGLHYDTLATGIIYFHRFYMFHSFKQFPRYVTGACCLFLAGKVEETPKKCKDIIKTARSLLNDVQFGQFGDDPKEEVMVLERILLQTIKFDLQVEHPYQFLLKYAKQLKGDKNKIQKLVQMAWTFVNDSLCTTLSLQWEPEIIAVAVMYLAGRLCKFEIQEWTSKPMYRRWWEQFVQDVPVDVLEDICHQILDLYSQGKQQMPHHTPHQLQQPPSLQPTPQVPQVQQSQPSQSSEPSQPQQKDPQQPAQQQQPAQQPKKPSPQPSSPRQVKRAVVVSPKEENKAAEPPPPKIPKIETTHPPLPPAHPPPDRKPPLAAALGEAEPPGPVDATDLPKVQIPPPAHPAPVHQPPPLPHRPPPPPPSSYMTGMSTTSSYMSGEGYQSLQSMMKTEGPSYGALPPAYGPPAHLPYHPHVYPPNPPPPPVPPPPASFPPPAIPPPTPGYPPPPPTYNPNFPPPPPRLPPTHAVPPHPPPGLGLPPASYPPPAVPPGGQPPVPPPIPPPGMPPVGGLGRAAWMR

As to `CC1(C)CC[C@H](Nc2ncc(C(F)(F)F)c(-c3c[nH]c4c(P(C)(C)=O)c(C#N)ccc34)n2)CN1` [Compound 101, reference compound], the IC50 in test [1] (Homo sapiens, WiDr, 72 h) amounted to 11.2 nM; in test [2] (Homo sapiens, A2780, 72 h) it was 8.76 nM; in [3], 246 nM; in [4], 207 nM; in test [5] it was 88.8 nM; in test [6], 112 nM. Besides, it took 1660 nM to reach half-maximal inhibition in test [7] (IC50).

For `CC1(C)CC[C@H](Nc2ncc(C(F)(F)F)c(-c3c[nH]c4c(P(C)(C)=O)c(N5CCCCC5=O)ccc34)n2)CN1` [Example 02], the 50% inhibitory concentration (IC50) in test [8] was less than 10 nM.

As to `Cc1cc(Nc2ncc(C(F)(F)F)c(-c3c[nH]c4cc(C#N)ccc34)n2)n[nH]1` [Example 12], the IC50 in test [8] lay in the range of 10 to 500 nM.

Take `CC1(C)CC[C@H](Nc2ncc(C(F)(F)F)c(-c3c[nH]c4c(S(=O)(=O)C5CCCC5)c(C#N)ccc34)n2)CN1` [Example 23]: the IC50 in test [8] was less than 10 nM.

With `CC1(C)CC[C@H](Nc2nc(-c3c[nH]c4c(P(C)(C)=O)c(C#N)ccc34)c3ccccc3n2)CN1` [Example 24], in test [8], the IC50 lay within 10 to 500 nM.

Consider `Cc1cc(Nc2ncc(C(F)(F)F)c(-c3c[nH]c4c(P(C)(C)=O)c(C#N)ccc34)n2)n[nH]1` [Example 28], for which the IC50 in test [8] is less than 10 nM.

As to `COC(=O)N[C@H]1CCC[C@@H](Nc2ncc(C(F)(F)F)c(-c3c[nH]c4c(P(C)(C)=O)c(C#N)ccc34)n2)C1` [Example 66], the half-inhibitory concentration (IC50) in test [8] was less than 10 nM.

Consider `COC(=O)Nc1ccc2c(-c3nc(N[C@H]4CCCNC4)ncc3C(F)(F)F)c[nH]c2c1Br` [Example T-01], for which the IC50 in test [1] (Homo sapiens, WiDr, 72 h) was 12.2 nM; in [2] (Homo sapiens, A2780, 72 h), 7.97 nM; in [9], less than 50 nM; in [10], more than 500 nM; in [11], more than 500 nM; in test [12], more than 500 nM. The IC50 in [3] was found to be 41.8 nM; in test [4], 68.9 nM; in [5], 62.5 nM; in [6], 51.9 nM; in test [7], 145 nM.

As for `COC(=O)Nc1ccc2c(-c3nc(N[C@H]4CCCNC4)ncc3C(F)(F)F)c[nH]c2c1C1CC1` [Example T-17], the IC50 is 26.8 nM in test [1] (Homo sapiens, WiDr, 72 h); 4.76 nM in test [2] (Homo sapiens, A2780, 72 h); less than 50 nM in test [9]; more than 500 nM in test [10]; more than 500 nM in test [11]; more than 500 nM in test [12].

In the case of `COC(=O)Nc1ccc2c(-c3nc(N[C@H]4CCCNC4)ncc3C(F)(F)F)c[nH]c2c1C(F)(F)F` [Example T-34], the half-inhibitory concentration (IC50) in [2] (Homo sapiens, A2780, 72 h) was 8.73 nM; in test [9], less than 50 nM; in [10], more than 500 nM; in test [11], more than 500 nM; in test [12], more than 500 nM; in test [3] it was 215 nM. The IC50 came out at 120 nM in test [6] and 573 nM in [7].

For `COC(=O)Nc1ccc2c(-c3nc(N[C@H]4CCC(C)(C)NC4)ncc3C(F)(F)F)c[nH]c2c1Br` [Example T-36], the IC50 in test [9] was less than 50 nM; in [10] it was more than 500 nM; in [11], more than 500 nM; in [12] it was more than 500 nM; in [3] it was 197 nM; in [4], 209 nM. The concentration for half-maximal inhibition (IC50) in [6] amounted to 116 nM; in [7] it was 471 nM.

For `COC(=O)Nc1ccc2c(-c3nc(N[C@H]4CCCNC4)ncc3C(F)(F)F)c[nH]c2c1OC` [Example T-37], the IC50 in test [1] (Homo sapiens, WiDr, 72 h) is 13.8 nM; in test [2] (Homo sapiens, A2780, 72 h), 7.65 nM; in test [9] it was less than 50 nM; in [10], 50 to 500 nM; in [11] it was more than 500 nM; in test [12] it was more than 500 nM. The IC50 in test [3] came out at 25.1 nM; in test [4] it was 40.1 nM; in [5], 47.8 nM; in test [6], 10.8 nM; in test [7], 52.7 nM.

Take `CCOC(=O)Nc1ccc2c(-c3nc(N[C@H]4CCCNC4)ncc3C(F)(F)F)c[nH]c2c1Br` [Example T-42]: the IC50 in test [1] (Homo sapiens, WiDr, 72 h) was 22.2 nM; in [2] (Homo sapiens, A2780, 72 h), 12.3 nM; in test [9] it was less than 50 nM; in [10], more than 500 nM; in test [11] it was more than 500 nM; in test [12] it was more than 500 nM. The IC50 in test [3] was determined as 98.4 nM; in test [4] it was 110 nM; in test [5], 137 nM; in [6], 77.9 nM; in [7], 181 nM.

As for `COC(=O)Nc1ccc2c(-c3nc(N[C@H]4CCCNC4)ncc3C(F)(F)F)c[nH]c2c1C` [Example T-52], the IC50 in [1] (Homo sapiens, WiDr, 72 h) is 28.3 nM; in [2] (Homo sapiens, A2780, 72 h) it was 16.1 nM; in test [9], less than 50 nM; in test [10] it was more than 500 nM; in test [11], more than 500 nM; in test [12], more than 500 nM. For the same molecule, the IC50 in test [3] turned out to be 51.1 nM; in test [4], 107 nM; in test [5], 89.2 nM; in [6], 17.7 nM; in [7] it was 119 nM.

As to `COCCOC(=O)Nc1ccc2c(-c3nc(N[C@H]4CCCNC4)ncc3C(F)(F)F)c[nH]c2c1Br` [Example T-62], the IC50 in test [1] (Homo sapiens, WiDr, 72 h) was 6.35 nM; in test [2] (Homo sapiens, A2780, 72 h) it was 12.5 nM; in test [9], less than 50 nM; in test [10] it was more than 500 nM; in test [11], more than 500 nM; in test [12], more than 500 nM. Further, the half-maximal inhibitory concentration (IC50) in [3] is 38.8 nM; in test [4] it was 57 nM; in test [5], 55.4 nM; in test [6] it was 23.8 nM; in test [7], 75.5 nM.

`C=C(C)c1c(NC(=O)OC)ccc2c(-c3nc(N[C@H]4CCCNC4)ncc3C(F)(F)F)c[nH]c12` [Example T-70]: the IC50 in test [1] was 45.5 nM; in [2], 4.47 nM; in [9], less than 50 nM; in [10], more than 500 nM; in test [11], more than 500 nM; in [12] it was more than 500 nM.
